According to publication PMC9961069 (Metabolites, 2023):

Tests used:
leukemia = system: leukemia; design: method as in PMID 5479856, PMID 5479852, PMID 5241406; conditions: early studies in the 1970s; cited from earlier work
purified human DHFR = molecular target: T1, purified human DHFR (Homo sapiens, UniProt P00374); assay: DHFR enzymatic inhibition assay (NADPH absorbance at 340 nm); assay type: biochemical; conditions: 200 nM DHFR, 137.5 μM DHF, 125 μM NADPH; n = 2; read-out: IC50
T1 construct: made in house; host or cells: E. coli BL21 (DE3) T1R pRARE2, pNIC-Bsa4 plasmid
T1 sequence (P00374 1-187): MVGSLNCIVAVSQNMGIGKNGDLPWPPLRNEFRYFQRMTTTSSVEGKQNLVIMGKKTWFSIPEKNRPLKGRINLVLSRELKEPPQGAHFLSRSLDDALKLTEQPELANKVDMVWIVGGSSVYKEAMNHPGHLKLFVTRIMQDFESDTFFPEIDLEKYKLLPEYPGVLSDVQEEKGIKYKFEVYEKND
Experimental: Working stocks of each inhibitor were created so that the final concentration of DMSO in each reaction was 2% in a final reaction volume of 100 μL. […] Reactions were prepared on ice in 384-well plates. […] Consumption of NADPH by measuring absorbance at 340 nm was used to monitor the progress of the reaction. Readings were taken every 5 min for 1 h at 37 °C using a Synergy MX microplate reader (BioTek).
Percent inhibition relative to the no-inhibitor control was determined using Equation (1). (1) % Inhibition=A340Inhibitor−A340DMSO Control/A340No DHFR−A340DMSO Control×100
Percent inhibition data were then fit to the four-parameter logistic model (Equation (2)) in GraphPad Prism 9.4.1 to determine half-maximal inhibitory concentrations (IC50):(2) y=Bottom+Top−Bottom/1+IC50/x^Hill slope where y represents the percent inhibition, x represents the concentration of inhibitor (μM), the bottom and top represent the bottom and top plateaus, and the Hill slope represents the slope factor. Each experiment contained duplicates of each sample, and each experiment was performed 2 times (n = 2). An ordinary one-way ANOVA was used to test for statistical significance between treatments.

[1] = system: MDA-MB468, MDA-MB-231, and MCF-7 breast cancer cell lines; assay: Dose-response viability in breast cancer cell lines (statements not split by line); assay type: cell-based, Human; conditions: 0–100 μM, 72 h
Experimental: (§1) The incorporation and metabolism of resazurin to resorufin was used to monitor cell viability. MDA-MB-468, MCF7, and MDA-MB-231 cells were grown in 96-well plates with a total of 5000 cells per well in a total volume of 180 μL for 24 h, as described above. After 24 h of growth, cells were treated with increasing concentrations of compounds (0.0457–100 μM) for 72 h. A vehicle control was also performed. […] The volume of treatment added to each well was 20 μL. For folinic acid rescue experiments, 5000 cells were treated with 10 μM compound with or without 300 μg/mL folinic acid (Supelco). After 72 h of treatment, resazurin was added to a final concentration of 44 μM, and cells were incubated for an additional 4 h at 37 °C. The fluorescence of resorufin was monitored on a Synergy MX microplate reader (BioTek) using an excitation wavelength of 540 nm and an emission wavelength of 600 nm. Percent viability relative to the DMSO control was determined. Each treatment was performed in triplicate, and each individual experiment was repeated three times (n = 3).

MDA-MB-231 cells = assay: Resazurin viability assay with or without folinic acid, MDA-MB-231; assay type: cell-based, Human; conditions: 72 h; for Relative Viability (%) – Inhibitor + FA Treatment: MDA-MB-231, 10 μM + 300 μg/mL folinic acid; for Rescue of viability impairment by folinic acid: MDA-MB-231, 10 μM ± 300 μg/mL FA; for Relative Viability (%) – Inhibitor Alone: MDA-MB-231, 10 μM, relative to DMSO
Experimental: as §1

MCF-7 cells = assay: Resazurin viability assay with or without folinic acid, MCF-7; assay type: cell-based, Human; conditions: 72 h; for Relative Viability (%) – Inhibitor + FA Treatment: MCF-7, 10 μM + 300 μg/mL folinic acid; for Relative Viability (%) – Inhibitor Alone: MCF-7, 10 μM, relative to DMSO; for Rescue of viability impairment by folinic acid: MCF-7, 10 μM ± 300 μg/mL FA
Experimental: as §1

[2] = system: T2, DHFR in MDA-MB-468 lysates; assay: Lysate cellular thermal shift assay (CETSA) for DHFR; assay type: binding, Human; conditions: 10 μM, MDA-MB-468 lysate, 45 °C for 3 min, DMSO at 37 °C = 100%
T2 construct: reactions containing 55 μg MDA-MB-468 lysate; endogenous in cells; host or cells: MDA-MB-468
Experimental: Trypsinized MDA-MB-468 cells were harvested by centrifugation at 200× g for 5 min and washed with PBS supplemented with EDTA-free PIC (Roche) and flash frozen for storage at −80 °C. Cells were lysed by resuspension in 60 μL PBS/PIC per 1 × 10^6 cells. Cells were lysed by three freeze-thaw cycles, where cells were frozen in an ethanol/dry ice bath for 3 min, immediately followed by incubation in a 37 °C water bath for 3 min. The insoluble fraction was removed by centrifugation at 20,000× g for 20 min at 4 °C. The supernatant containing the soluble lysate was removed and saved for subsequent steps.
After incubation, each reaction was transferred to a 1.5 mL tube and centrifuged at 20,000× g for 20 min at 4 °C to remove the insoluble proteins. After centrifugation, 18 μL of supernatant was carefully removed from each reaction, without disturbing any pelleted aggregates, and added to 4.5 μL of 5× SDS-PAGE loading buffer. 11 μL of each reaction was loaded onto a gel in duplicate, and proteins were detected by Western blot (as described below). Resulting band densities were fit to the Boltzmann equation to determine the melting temperature (Tm):(3) y=Bottom+Top−Bottom/1+e^Tm−x/Slope
To rescue the thermal degradation of DHFR by inhibitors, samples containing 10 μM inhibitor, 55 μg lysate, and 1% DMSO in a total volume of 28 μL in DHFR buffer were prepared in PCR tubes and incubated at room temperature for 20 min. Two DMSO-only controls were also prepared. Reactions containing inhibitors were then incubated at 45 °C for 3 min. One DMSO-only control was also heated at 45 °C for 3 min, and the other control was heated at 37 °C for 3 min. The soluble protein fraction was separated from the insoluble proteins by centrifugation, and proteins were separated by SDS-PAGE, as described above, and analyzed via Western blot, as described below. Each experiment was repeated 3 times.
(§2) Proteins were electrophoretically separated on a 10% gel, and proteins were transferred to a methanol-activated PVDF membrane using the Trans-Blot Turbo transfer system (Bio-Rad) for 7 min at 1.3 A and 25 V in Trans-Blot Turbo transfer buffer (Bio-Rad). Membranes were blocked with 5% skim milk w/v in TBS-T (20 mM Tris, 150 mM NaCl, 0.05% Tween-20) for 1 h at room temperature. […] The horseradish peroxidase (HRP)-linked anti-mouse IgG secondary antibody (NA931, Cytiva; 1:3000) was added for 1 h at room temperature in 5% skim milk w/v in TBS-T. Signal was detected by adding Immobilon Forte Western HRP Substrate (Millipore), and chemiluminescence was captured on a Sapphire Biomolecular Imager (Azure Biosystems). Band densities were determined using ImageJ (Fiji). The band intensity of DHFR was normalized to the thermostable loading control SOD1 [22].

MDA-MB-468 cells = assay: Resazurin viability assay with or without folinic acid, MDA-MB-468; assay type: cell-based, Human; conditions: 72 h; for Relative Viability (%) – Inhibitor + FA Treatment: MDA-MB-468, 10 μM + 300 μg/mL folinic acid; for Rescue of viability impairment by folinic acid: MDA-MB-468, 10 μM ± 300 μg/mL FA; for Relative Viability (%) – Inhibitor Alone: MDA-MB-468, 10 μM, relative to DMSO
Experimental: as §1

DHFR in MDA-MB-468 cells = system: T3, DHFR in MDA-MB-468 cells; assay: DHFR accumulation assay (Western blot); assay type: cell-based, Human; conditions: MDA-MB-468, 24 h, range 0.012–1 nM
T3 construct: reactions containing 55 μg MDA-MB-468 lysate; endogenous in cells; host or cells: MDA-MB-468
Experimental: Trypsinized MDA-MB-468 cells were seeded into 6-well plates at a density of 300,000 cells per 2 mL of media and allowed to adhere for 24 h. […] The final concentration of DMSO in each well was 1%. A DMSO-only control was also performed on each individual plate. Cells were then trypsinized, harvested by centrifugation at 200× g for 5 min at 4 °C, and washed once with PBS/PIC. Cell pellets were flash frozen using an ethanol/dry ice bath and stored at −80 °C prior to lysis. Each cell pellet was lysed as described above using 50 μL PBS/PIC per cell pellet. Samples were then analyzed by Western blot, as described below, using 30 μg lysate per lane. Band intensities of DHFR were normalized to the loading control SOD1 via densitometry using ImageJ (Fiji), and each DHFR band was normalized to the DMSO control. Fold-change in DHFR band intensity was plotted against inhibitor concentration (μM). Each experiment was performed two separate times as individual biological replicates (n = 2).
as §2

Row | SMILES | Anti-leukemic activity in vivo (leukemia) | IC50 (purified human DHFR) [nM] | Phenotypic response in viability dose-response [1] | Relative Viability (%) – Inhibitor + FA Treatment (MDA-MB-231 cells) [%] | Rescue of viability impairment by folinic acid (MDA-MB-231 cells) | Relative Viability (%) – Inhibitor Alone (MDA-MB-231 cells) [%] | Relative Viability (%) – Inhibitor + FA Treatment (MCF-7 cells) [%] | Relative Viability (%) – Inhibitor Alone (MCF-7 cells) [%] | Normalized Band Density (%) of soluble DHFR [2] | Normalized Band Density (%) of soluble DHFR ([2]; listed as NSC123032) [%] | Relative Viability (%) – Inhibitor + FA Treatment (MDA-MB-468 cells) [%] | Rescue of viability impairment by folinic acid (MDA-MB-468 cells) | Relative Viability (%) – Inhibitor Alone (MDA-MB-468 cells) [%] | Concentration giving notable accumulation of DHFR (DHFR in MDA-MB-468 cells) [nM] | Rescue of viability impairment by folinic acid (MCF-7 cells) | Normalized Band Density (%) of soluble DHFR ([2]; listed as NSC127153) [%]
1 | CC1(C)N=C(N)N=C(N)N1c1ccc(CCCCc2ccc(S(=O)(=O)F)cc2)cc1 [compound 123032] | promising anti-leukemic activity in vivo | 1170 ± 460 | little effect at low concentrations and cytotoxicity at higher concentrations | 103.45 ± 16.5 | largest amplitude of rescue | 57.55 ± 3.1 | 104.16 ± 6.3 | 81.94 ± 19.4 | greater than 100% | 121.24 ± 45.6 | 66.59 ± 2.1 | rescued in all but MDA-MB-468 cells | 71.41 ± 10.0 | – | – | –
2 | CC1(C)N=C(N)N=C(N)N1c1ccc(CCCCc2ccccc2)cc1 [compound 127153] | promising anti-leukemic activity in vivo | 930 ± 240 | induce growth arrest at low concentrations and induce cell death at higher concentrations | 55.71 ± 12.7 | failed to rescue | 45.99 ± 10.6 | 56.75 ± 7.9 | 43.03 ± 13.9 | greater than 100% | – | 23.92 ± 7.7 | failed to rescue | 17.90 ± 7.8 | 0.33 | failed to rescue | 100.16 ± 36.4
3 | CC1(C)N=C(N)N=C(N)N1c1ccc(CCCCc2ccccc2)c(Cl)c1 [compound 128184] | promising anti-leukemic activity in vivo | 720 ± 240 | induce growth arrest at low concentrations and induce cell death at higher concentrations | 53.14 ± 12.7 | failed to rescue | 42.94 ± 9.7 | 48.65 ± 6.9 | 35.94 ± 11.4 | – | – | 16.09 ± 10.4 | failed to rescue | 12.35 ± 8.6 | 0.33 | failed to rescue | –
